Source: the OligoGym collection
HELM strings list units from the 5' end as sugar, base in round brackets, then linkage (d deoxyribose, r ribose, m 2'-O-methyl, p phosphodiester). Strings are as the collection lists them; they lack the last nucleoside at the 3' end of the tested compound. [moe] = 2'-O-(2-methoxyethyl) (MOE); [sp] = phosphorothioate linkage; [m5C] = 5-methylcytosine

Target: APP
Assay: mouse, dose not given
Details: ASO

Substance | 3 h FOB score [score 0-7]
RNA1{[moe]([m5C])[sp].[moe](T)p.[moe](A)p.[moe]([m5C])p.[moe]([m5C])[sp].d([m5C])[sp].d([m5C])[sp].d(T)[sp].d([m5C])[sp].d(G)[sp].d(G)[sp].d(A)[sp].d(A)[sp].d([m5C])[sp].d(T)[sp].[moe](T)p.[moe](G)p.[moe](T)[sp].[moe]([m5C])}$$$$ (last 3' nucleoside missing) | 0.75
RNA1{[moe]([m5C])[sp].[moe](T)p.[moe](G)p.[moe](G)p.[moe](G)[sp].d(T)[sp].d(A)[sp].d([m5C])[sp].d(A)[sp].d(T)[sp].d(A)[sp].d(A)[sp].d(T)[sp].d(A)[sp].d([m5C])[sp].[moe](T)p.[moe](A)p.[moe](G)[sp].[moe](G)}$$$$ (last 3' nucleoside missing) | 0
RNA1{[moe]([m5C])[sp].[moe](T)p.[moe](T)p.[moe](A)p.[moe]([m5C])[sp].d(A)[sp].d(A)[sp].d(A)[sp].d([m5C])[sp].d(T)[sp].d([m5C])[sp].d(A)[sp].d([m5C])[sp].d([m5C])[sp].d(A)[sp].[moe](A)p.[moe]([m5C])p.[moe](T)[sp].[moe](A)}$$$$ (last 3' nucleoside missing) | 0
RNA1{[moe]([m5C])[sp].[moe](T)p.[moe](T)p.[moe](A)p.[moe]([m5C])[sp].d(A)[sp].d(T)[sp].d([m5C])[sp].d(A)[sp].d(T)[sp].d(T)[sp].d(T)[sp].d(T)[sp].d([m5C])[sp].d(T)[sp].[moe](T)p.[moe](G)p.[moe]([m5C])[sp].[moe](A)}$$$$ (last 3' nucleoside missing) | 1
RNA1{[moe]([m5C])[sp].[moe](T)p.[moe](T)p.[moe](T)p.[moe](T)[sp].d(G)[sp].d(T)[sp].d(A)[sp].d(T)[sp].d([m5C])[sp].d(A)[sp].d(T)[sp].d(A)[sp].d(A)[sp].d(A)[sp].[moe](T)p.[moe](G)p.[moe](A)[sp].[moe](A)}$$$$ (last 3' nucleoside missing) | 0.5
RNA1{[moe]([m5C])[sp].[moe](T)p.[moe](T)p.[moe](T)p.[moe]([m5C])[sp].d(T)[sp].d(A)[sp].d(T)[sp].d(T)[sp].d(T)[sp].d(A)[sp].d([m5C])[sp].d(T)[sp].d([m5C])[sp].d(A)[sp].[moe]([m5C])p.[moe](A)p.[moe](G)[sp].[moe]([m5C])}$$$$ (last 3' nucleoside missing) | 0
RNA1{[moe]([m5C])[sp].[moe](T)p.[moe](T)p.[moe]([m5C])p.[moe](T)[sp].d(G)[sp].d([m5C])[sp].d(A)[sp].d(A)[sp].d(A)[sp].d(G)[sp].d(A)[sp].d(A)[sp].d([m5C])[sp].d(A)[sp].[moe]([m5C])p.[moe]([m5C])p.[moe](A)[sp].[moe](A)}$$$$ (last 3' nucleoside missing) | 0.5
RNA1{[moe]([m5C])[sp].[moe](T)p.[moe](T)p.[moe]([m5C])p.[moe](T)[sp].d(T)[sp].d(A)[sp].d(T)[sp].d([m5C])[sp].d(A)[sp].d(G)[sp].d([m5C])[sp].d(T)[sp].d(T)[sp].d(T)[sp].[moe](A)p.[moe](G)p.[moe](G)[sp].[moe]([m5C])}$$$$ (last 3' nucleoside missing) | 1
RNA1{[moe]([m5C])[sp].[moe](T)p.[moe](T)p.[moe]([m5C])p.[moe]([m5C])[sp].d([m5C])[sp].d(A)[sp].d(T)[sp].d(T)[sp].d([m5C])[sp].d(T)[sp].d([m5C])[sp].d(T)[sp].d([m5C])[sp].d(A)[sp].[moe](T)p.[moe](G)p.[moe](A)[sp].[moe]([m5C])}$$$$ (last 3' nucleoside missing) | 0.25
RNA1{[moe]([m5C])[sp].[moe](T)p.[moe](T)p.[moe]([m5C])p.[moe]([m5C])p.[moe]([m5C])p.d(A)[sp].d(T)[sp].d(T)[sp].d([m5C])[sp].d(T)[sp].d([m5C])[sp].d(T)[sp].d([m5C])[sp].d(A)[sp].d(T)[sp].[moe](G)p.[moe](A)[sp].[moe]([m5C])}$$$$ (last 3' nucleoside missing) | 0
RNA1{[moe]([m5C])[sp].[moe](T)p.[moe]([m5C])p.[moe](T)p.[moe](T)[sp].d(G)[sp].d(T)[sp].d(T)[sp].d(A)[sp].d(A)[sp].d(A)[sp].d(T)[sp].d([m5C])[sp].d(A)[sp].d(T)[sp].[moe](G)p.[moe](G)p.[moe]([m5C])[sp].[moe](A)}$$$$ (last 3' nucleoside missing) | 0
RNA1{[moe]([m5C])[sp].[moe](T)p.[moe]([m5C])p.[moe](T)p.[moe]([m5C])[sp].d(A)[sp].d(T)[sp].d(A)[sp].d(G)[sp].d(T)[sp].d([m5C])[sp].d(T)[sp].d(T)[sp].d(A)[sp].d(A)[sp].[moe](T)p.[moe](T)p.[moe]([m5C])[sp].[moe]([m5C])}$$$$ (last 3' nucleoside missing) | 0.25
RNA1{[moe]([m5C])[sp].[moe](T)p.[moe]([m5C])p.[moe](T)p.[moe]([m5C])p.[moe](A)[sp].d(T)[sp].d(A)[sp].d(G)[sp].d(T)[sp].d([m5C])[sp].d(T)[sp].d(T)[sp].d(A)[sp].d(A)[sp].d(T)[sp].[moe](T)p.[moe]([m5C])[sp].[moe]([m5C])}$$$$ (last 3' nucleoside missing) | 0.75
RNA1{[moe]([m5C])[sp].[moe](T)p.[moe]([m5C])p.[moe]([m5C])p.[moe](A)[sp].d(A)[sp].d(T)[sp].d(T)[sp].d(T)[sp].d(T)[sp].d(A)[sp].d(A)[sp].d([m5C])[sp].d(T)[sp].d(T)[sp].[moe](G)p.[moe]([m5C])p.[moe](A)[sp].[moe]([m5C])}$$$$ (last 3' nucleoside missing) | 2.75
RNA1{[moe]([m5C])[sp].[moe](T)p.[moe]([m5C])p.[moe]([m5C])p.[moe](A)p.[moe](A)[sp].d(T)[sp].d(T)[sp].d(T)[sp].d(T)[sp].d(A)[sp].d(A)[sp].d([m5C])[sp].d(T)[sp].d(T)[sp].d(G)[sp].[moe]([m5C])p.[moe](A)[sp].[moe]([m5C])}$$$$ (last 3' nucleoside missing) | 0
RNA1{[moe]([m5C])[sp].[moe]([m5C])[sp].[moe]([m5C])p.[moe](A)p.[moe]([m5C])[sp].d(T)[sp].d(T)[sp].d([m5C])[sp].d([m5C])[sp].d([m5C])[sp].d(A)[sp].d(T)[sp].d(T)[sp].d([m5C])[sp].d(T)[sp].[moe](G)p.[moe](G)p.[moe](A)[sp].[moe]([m5C])}$$$$ (last 3' nucleoside missing) | 0
RNA1{[moe]([m5C])[sp].[moe]([m5C])p.[moe](A)p.[moe](A)p.[moe](A)[sp].d(G)[sp].d(A)[sp].d(T)[sp].d(T)[sp].d([m5C])[sp].d([m5C])[sp].d(A)[sp].d([m5C])[sp].d(T)[sp].d(T)[sp].[moe](T)p.[moe]([m5C])p.[moe](T)[sp].[moe]([m5C])}$$$$ (last 3' nucleoside missing) | 0
RNA1{[moe]([m5C])[sp].[moe]([m5C])p.[moe](A)p.[moe](A)p.[moe](G)[sp].d(T)[sp].d(A)[sp].d(T)[sp].d(T)[sp].d(T)[sp].d(T)[sp].d([m5C])[sp].d([m5C])[sp].d(T)[sp].d(G)[sp].[moe]([m5C])p.[moe](A)p.[moe](T)[sp].[moe]([m5C])}$$$$ (last 3' nucleoside missing) | 0
RNA1{[moe]([m5C])[sp].[moe]([m5C])p.[moe](A)p.[moe](T)p.[moe]([m5C])[sp].d(T)[sp].d(T)[sp].d(T)[sp].d(A)[sp].d(T)[sp].d(T)[sp].d([m5C])[sp].d(T)[sp].d(A)[sp].d(T)[sp].[moe](G)p.[moe](A)p.[moe](G)[sp].[moe]([m5C])}$$$$ (last 3' nucleoside missing) | 0.75
RNA1{[moe]([m5C])[sp].[moe]([m5C])p.[moe](A)p.[moe](T)p.[moe]([m5C])[sp].d(T)[sp].d(T)[sp].d([m5C])[sp].d(A)[sp].d([m5C])[sp].d(T)[sp].d(T)[sp].d([m5C])[sp].d(A)[sp].d(G)[sp].[moe](A)p.[moe](G)p.[moe](A)[sp].[moe](T)}$$$$ (last 3' nucleoside missing) | 0.5
RNA1{[moe]([m5C])[sp].[moe]([m5C])p.[moe](A)p.[moe]([m5C])p.[moe](G)[sp].d(A)[sp].d([m5C])[sp].d([m5C])[sp].d(T)[sp].d(T)[sp].d(A)[sp].d([m5C])[sp].d(A)[sp].d([m5C])[sp].d(T)[sp].[moe](A)p.[moe](G)p.[moe](G)[sp].[moe](T)}$$$$ (last 3' nucleoside missing) | 0
RNA1{[moe]([m5C])[sp].[moe]([m5C])p.[moe](T)p.[moe](T)p.[moe](G)[sp].d([m5C])[sp].d(T)[sp].d(A)[sp].d(T)[sp].d(T)[sp].d([m5C])[sp].d(A)[sp].d(T)[sp].d(T)[sp].d(T)[sp].[moe](T)p.[moe](T)p.[moe]([m5C])[sp].[moe](A)}$$$$ (last 3' nucleoside missing) | 0
RNA1{[moe]([m5C])[sp].[moe]([m5C])p.[moe](T)p.[moe](T)p.[moe](T)[sp].d(G)[sp].d(T)[sp].d(T)[sp].d(T)[sp].d(G)[sp].d(A)[sp].d(A)[sp].d([m5C])[sp].d([m5C])[sp].d([m5C])[sp].[moe](A)p.[moe]([m5C])p.[moe](A)[sp].[moe](T)}$$$$ (last 3' nucleoside missing) | 0
RNA1{[moe]([m5C])[sp].[moe]([m5C])p.[moe](T)p.[moe](T)p.[moe](T)[sp].d([m5C])[sp].d(A)[sp].d(A)[sp].d(T)[sp].d(A)[sp].d(T)[sp].d(T)[sp].d(G)[sp].d(T)[sp].d(T)[sp].[moe]([m5C])p.[moe](T)p.[moe](T)[sp].[moe]([m5C])}$$$$ (last 3' nucleoside missing) | 3.33
RNA1{[moe]([m5C])[sp].[moe]([m5C])p.[moe](T)p.[moe](T)p.[moe]([m5C])[sp].d(T)[sp].d(T)[sp].d(A)[sp].d([m5C])[sp].d(A)[sp].d(A)[sp].d(T)[sp].d(T)[sp].d(A)[sp].d(T)[sp].[moe](G)p.[moe]([m5C])p.[moe](T)[sp].[moe]([m5C])}$$$$ (last 3' nucleoside missing) | 1
